In one series the test system is radiation pneumonitis. More on the design: method as in Gao et al., 2013. To be noted: delivered as late as 35 days after radiation; ref Gao et al., 2013; cited from earlier work.
Series [1] is described as follows: Lisinopril excreted in 24 h urine, measured by LC-MS/MS. In kind it is in vivo, WAG/RijCmcr rats. The procedure:
Urine was collected in a Nalgene rat metabolic cage. A rat was placed in the metabolic cage with access to food and water for 24 h. After 24 h urine volume was recorded, and an aliquot was frozen and stored at −80°C for LC-MS analyses.
Plasma was measured 1–4 times in each animal, at 0, 0.5, 1, 1.5, 2, 2.5, 3, 4, 5, 6, 8, 24 or 48 h after oral gavage, and 5 min, 1.5 and 24 h after intravenous injection.
Aliquots (0.1 ml) of rat plasma or urine were extracted with ∼3 volumes of cold acidified methanol spiked with enalaprilat as an internal standard (0.3 ml of methanol, 20 µL of 0.1 M HCl and 3 µL of 0.1 mM enalaprilat), mixed well and allowed to stand for 5 min before centrifugation at 14,000 rpm for 5 min at 4°C. The supernatant was passed through a Phree phospholipid removal plate (Phenomenex) and the eluate dried completely under a flux of air and reconstituted with 120 µL of LC-MS mobile phase (5% acetonitrile, 95% water, 0.1% formic acid), spiked with 1 µM of lisinopril-d5 used as a second internal standard. […] Samples were injected into C18 reversed phase column (Waters Cortecs UPLC C18 2.1 mm × 50 mm, 1.6 µm) thermostated at 40°C and equilibrated with 0.1% formic acid in water:acetonitrile (95:5). Compounds were eluted by increasing the concentration of acetonitrile in the mobile phase from 5 to 40% over 2.5 min at the flow rate of 0.5 ml/min.

A short description of series [2]: in vivo. To be noted: female, WAG/RijCmcr, rat, plasma, po.
The conditions of series [3]: control (nonirradiated) rats; base parameter estimate, two-compartment model.
Excerpt: (§1) WAG/RijCmcr female rats were irradiated without the use of anesthetics at 11–12 weeks of age weighing ∼155 g. All irradiations were done between 8–11 am. For leg-out PBI, non-anesthetized rats were immobilized in a plastic jig and irradiated using a XRAD-320 orthovoltage x-ray system (Precision X-Ray, North Branford, Connecticut). […] During the irradiation, each rat was confined in a chamber which allows irradiation of two rats simultaneously. One hind limb of each rat was carefully externalized from the chamber and shielded with a 0.25-inch lead block. The dose to this leg was 2 Gy. The dual-chambered jig was placed on a plane perpendicular to the beam direction, with distance from source to the midline of rats set at 61 cm. […] The irradiation field at midline was large enough to cover both chambers with adequate (at least 2 cm) margins. Supportive care was provided to rats receiving 13 Gy. Supportive care consisted of delivery of the antibiotic Enrofloxacin (10 mg/kg/day) from days 1–14 in the drinking water, and hydration by daily subcutaneous injection of saline (40 ml/kg/day) from days 3–7, post-irradiation.
(§2) Aliquots (0.1 ml) of rat plasma or urine were extracted with ∼3 volumes of cold acidified methanol spiked with enalaprilat as an internal standard (0.3 ml of methanol, 20 µL of 0.1 M HCl and 3 µL of 0.1 mM enalaprilat), mixed well and allowed to stand for 5 min before centrifugation at 14,000 rpm for 5 min at 4°C. […] Samples were injected into C18 reversed phase column (Waters Cortecs UPLC C18 2.1 mm × 50 mm, 1.6 µm) thermostated at 40°C and equilibrated with 0.1% formic acid in water:acetonitrile (95:5).
(§3) Pharmacokinetic (PK) modeling was performed on the data to measure distribution of the drug in different tissues (compartments). The two compartments fitted with observed data were the central compartment (plasma) and the peripheral compartment (internal tissues such as lungs, liver, kidneys, etc.). Administration by gavage was modeled using the gut as a depot to include bioavailability (F) and absorption (k a) from the gut (Figure 1). […] Clearance out of the system was modeled by Cl, the renal clearance rate via urine (Figure 1). The model was fitted using the open-source R package Nonlinear Mixed-Effects Model Development and Simulation (nlmixr) along with related R packages.
(§4) An additive error with compartment-specific variance was assumed for the plasma, peripheral, and urine compartments. Multiple measurements from the same animal were linked via a log-normally distributed multiplicative random effect on the compartment volumes V 2 and V 3.
(§5) The observed measurements are the concentration in plasma, Cplasma and the (cumulative) amount in the urine, Yurine .
(§6) The model was fitted to the plasma and urine data, the accumulation in the peripheral compartment was inferred from the model.
The nature of series [4]: in vivo. To be noted: female, WAG/RijCmcr, rat, plasma, urine.
Excerpt: as §1, §2, §3, §4, §5, §6
On the set-up of series [5]: method as in Beermann 1988. To be noted: humans; ref Beermann 1988; cited from earlier work.

Read-outs that look alike come from different tables or passages of the source.

As usually defined, the Tmax is the time from dosing to the highest level. Usually half-life stands for the time in which the quantity being followed falls by half. As a reminder, the bioavailability is the share of a dose that reaches the circulation, judged against a reference dose that is usually intravenous. The low end stands for little systemic uptake, the high end for much systemic uptake.

As to `CCOC(=O)[C@H](CCc1ccccc1)N[C@@H](C)C(=O)N1CCC[C@H]1C(=O)O` [enalapril], the “Efficacy to mitigate radiation pneumonitis” value in the series on radiation pneumonitis is “had efficacy to mitigate radiation pneumonitis”.
With `NCCCC[C@H](N[C@@H](CCc1ccccc1)C(=O)O)C(=O)N1CCC[C@H]1C(=O)O` [lisinopril], the “Measured lisinopril excreted in urine per 300 µg administered, geometric mean” value came to 0.46 µmol in series [1] (IV, no radiation); 0.37 µmol in series [1] (IV, radiation); 0.072 µmol in series [1] (gavage, no radiation); 0.11 µmol in series [1] (gavage, radiation). The Inter-individual variation runs as follows: (irradiated rats, 90 min after IV injection) 1.8 fold; (irradiated rats, 90 min after oral gavage (data not shown)) 2.7 fold; (non-irradiated rats, 90 min after oral gavage (data not shown)) 1.6 fold; (nonirradiated rats injected with lisinopril (result not shown)) 3-4 fold. The Tmax in the series “in vivo [2]” is 2 to 3 h. The Central volume in series [3] is 0.008 L. Moreover, the “Peripheral volume (lung)” value in series [3] is 0.513 L. Moreover, in the series “in vivo [4]”, the CL renal is 0.15 mL/min. The half-life is 150 min in the series “in vivo [4]” (Model-based circulating half-life, irradiated rats); 168 min in the series “in vivo [4]” (Model-based circulating half-life, non-irradiated rats); 4980 min in “in vivo [4]” (Model-based estimate of terminal half-life, irradiated rats); 3900 min in the series “in vivo [4]” (Model-based estimate of terminal half-life, nonirradiated rats). For the same molecule, the bioavailability in “in vivo [4]” (oral) came out at 25.4%; in the series “in vivo [4]” (po) it was 19.2%. Besides, in series [5], the “Half-life of prolonged terminal phase” value was 46.7 h. The “Time of peak serum levels” value in series [5] is 6 to 8 h.
